Experimental data published in ChEMBL document CHEMBL3885881, “DrugMatrix”.

Species on record: Rattus norvegicus
Assay: DrugMatrix - Regimen: Daily Repeat
Type: toxicity, organism-based, Sprague-Dawley
Parameters: regimen Daily Repeat, gender Male, age 6-8 weeks
Conditions: in vivo, po, route oral GAVAGE, […]; for ABSOLUTE BASOPHIL / ABSOLUTE EOSINOPHIL / ABSOLUTE LYMPHOCYTE / ABSOLUTE MONOCYTE / ABSOLUTE SEGMENTED NEUTROPHIL / BASOPHIL / EOSINOPHIL / ERYTHROCYTE COUNT / HEMATOCRIT / HEMOGLOBIN / LEUKOCYTE COUNT / LYMPHOCYTE / MEAN CORPUSCULAR HEMOGLOBIN / MEAN CORPUSCULAR HEMOGLOBIN CONCENTRATION / MEAN CORPUSCULAR VOLUME / MONOCYTE / NEUTROPHIL / NUCLEATED RED BLOOD CELLS / PLATELET COUNT: tissue Blood; for ALANINE AMINOTRANSFERASE / ALBUMIN / ALKALINE PHOSPHATASE / ASPARTATE AMINOTRANSFERASE / BLOOD UREA NITROGEN / CARBON DIOXIDE / CHLORIDE / CHOLESTEROL / CREATINE PHOSPHOKINASE / CREATININE / GLUCOSE / LACTATE DEHYDROGENASE / LIPASE / PHOSPHORUS / POTASSIUM / SODIUM / TOTAL BILIRUBIN / TOTAL PROTEIN / URIC ACID: tissue Plasma
[1] = 3 mg/kg, 120 h, dose level Low, time 5 day
[2] = 300 mg/kg, 72 h, dose level High, time 3 day
[3] = 300 mg/kg, 120 h, dose level High, time 5 day

CC#C[C@]1(O)CC[C@H]2[C@@H]3CCC4=CC(=O)CCC4=C3[C@@H](c3ccc(N(C)C)cc3)C[C@@]21C [MIFEPRISTONE]
ABSOLUTE BASOPHIL [1]: 0 CELLS/uL
ABSOLUTE EOSINOPHIL [1]: 0 CELLS/uL
ABSOLUTE LYMPHOCYTE [1]: 7739.67 CELLS/uL
ABSOLUTE MONOCYTE [1]: 116.67 CELLS/uL
ABSOLUTE SEGMENTED NEUTROPHIL [1]: 1310.33 CELLS/uL
BASOPHIL [1]: 0%
EOSINOPHIL [1]: 0%
ERYTHROCYTE COUNT [1]: 4.91 x10E6/uL
HEMATOCRIT [1]: 31.8%
HEMOGLOBIN [1]: 12.53 G/DL
LEUKOCYTE COUNT [1]: 9.17 x10E3/uL
LYMPHOCYTE [1]: 84.33%
MEAN CORPUSCULAR HEMOGLOBIN [1]: 25.53 pg
MEAN CORPUSCULAR HEMOGLOBIN CONCENTRATION [1]: 39.43 G/DL
MEAN CORPUSCULAR VOLUME [1]: 64.83 fL
MONOCYTE [1]: 1.33%
NEUTROPHIL [1]: 14.33%
NUCLEATED RED BLOOD CELLS [1]: 0 /100WBC
PLATELET COUNT [1]: 1194.67 x10E3/uL
ALANINE AMINOTRANSFERASE [1]: 61.67 u/L
ALBUMIN [1]: 4.13 G/DL
ALKALINE PHOSPHATASE [1]: 340.33 u/L
ASPARTATE AMINOTRANSFERASE [1]: 84 u/L
BLOOD UREA NITROGEN [1]: 13.33 mg/dL
CARBON DIOXIDE [1]: 30.33 mmol/L
CHLORIDE [1]: 97.67 MEQ/L
CHOLESTEROL [1]: 64.67 mg/dL
CREATINE PHOSPHOKINASE [1]: 193.33 u/L
CREATININE [1]: 0.14 mg/dL
GLUCOSE [1]: 154.33 mg/dL
LACTATE DEHYDROGENASE [1]: 87 u/L
LIPASE [1]: 9.33 u/L
PHOSPHORUS [1]: 10.8 mg/dL
POTASSIUM [1]: 5.65 MEQ/L
SODIUM [1]: 143.37 MEQ/L
TOTAL BILIRUBIN [1]: 0.13 mg/dL
TOTAL PROTEIN [1]: 5.9 G/DL
URIC ACID [1]: 0.73 mg/dL
ABSOLUTE BASOPHIL [2]: 0 CELLS/uL
ABSOLUTE EOSINOPHIL [2]: 0 CELLS/uL
ABSOLUTE LYMPHOCYTE [2]: 6590.67 CELLS/uL
ABSOLUTE MONOCYTE [2]: 75.33 CELLS/uL
ABSOLUTE SEGMENTED NEUTROPHIL [2]: 634 CELLS/uL
BASOPHIL [2]: 0%
EOSINOPHIL [2]: 0%
ERYTHROCYTE COUNT [2]: 5.5 x10E6/uL
HEMATOCRIT [2]: 33.8%
HEMOGLOBIN [2]: 13.33 G/DL
LEUKOCYTE COUNT [2]: 7.3 x10E3/uL
LYMPHOCYTE [2]: 90.67%
MEAN CORPUSCULAR HEMOGLOBIN [2]: 24.3 pg
MEAN CORPUSCULAR HEMOGLOBIN CONCENTRATION [2]: 39.47 G/DL
MEAN CORPUSCULAR VOLUME [2]: 61.57 fL
MONOCYTE [2]: 1%
NEUTROPHIL [2]: 8.33%
NUCLEATED RED BLOOD CELLS [2]: 0 /100WBC
PLATELET COUNT [2]: 1129.67 x10E3/uL
ALANINE AMINOTRANSFERASE [2]: 63 u/L
ALBUMIN [2]: 3.77 G/DL
ALKALINE PHOSPHATASE [2]: 417.67 u/L
ASPARTATE AMINOTRANSFERASE [2]: 107.67 u/L
BLOOD UREA NITROGEN [2]: 14.33 mg/dL
CARBON DIOXIDE [2]: 28 mmol/L
CHLORIDE [2]: 102.67 MEQ/L
CHOLESTEROL [2]: 54.33 mg/dL
CREATINE PHOSPHOKINASE [2]: 371.67 u/L
CREATININE [2]: 0.32 mg/dL
GLUCOSE [2]: 160.67 mg/dL
LACTATE DEHYDROGENASE [2]: 97.67 u/L
LIPASE [2]: 11 u/L
PHOSPHORUS [2]: 9.53 mg/dL
POTASSIUM [2]: 4.8 MEQ/L
SODIUM [2]: 144.33 MEQ/L
TOTAL BILIRUBIN [2]: 0.17 mg/dL
TOTAL PROTEIN [2]: 5.53 G/DL
URIC ACID [2]: 0.37 mg/dL
ABSOLUTE BASOPHIL [3]: 0 CELLS/uL
ABSOLUTE EOSINOPHIL [3]: 48.67 CELLS/uL
ABSOLUTE LYMPHOCYTE [3]: 8343 CELLS/uL
ABSOLUTE MONOCYTE [3]: 151.67 CELLS/uL
ABSOLUTE SEGMENTED NEUTROPHIL [3]: 790 CELLS/uL
BASOPHIL [3]: 0%
EOSINOPHIL [3]: 0.67%
ERYTHROCYTE COUNT [3]: 5.36 x10E6/uL
HEMATOCRIT [3]: 32.73%
HEMOGLOBIN [3]: 12.93 G/DL
LEUKOCYTE COUNT [3]: 9.33 x10E3/uL
LYMPHOCYTE [3]: 89%
MEAN CORPUSCULAR HEMOGLOBIN [3]: 24.17 pg
MEAN CORPUSCULAR HEMOGLOBIN CONCENTRATION [3]: 39.53 G/DL
MEAN CORPUSCULAR VOLUME [3]: 61.13 fL
MONOCYTE [3]: 1.67%
NEUTROPHIL [3]: 8.67%
NUCLEATED RED BLOOD CELLS [3]: 0 /100WBC
PLATELET COUNT [3]: 1290.33 x10E3/uL
ALANINE AMINOTRANSFERASE [3]: 84.33 u/L
ALBUMIN [3]: 3.8 G/DL
ALKALINE PHOSPHATASE [3]: 386 u/L
ASPARTATE AMINOTRANSFERASE [3]: 91 u/L
BLOOD UREA NITROGEN [3]: 15.33 mg/dL
CARBON DIOXIDE [3]: 30.33 mmol/L
CHLORIDE [3]: 97.67 MEQ/L
CHOLESTEROL [3]: 86 mg/dL
CREATINE PHOSPHOKINASE [3]: 250 u/L
CREATININE [3]: 0.3 mg/dL
GLUCOSE [3]: 148.33 mg/dL
LACTATE DEHYDROGENASE [3]: 74.67 u/L
LIPASE [3]: 25.67 u/L
PHOSPHORUS [3]: 8.03 mg/dL
POTASSIUM [3]: 5.82 MEQ/L
SODIUM [3]: 142.7 MEQ/L
TOTAL BILIRUBIN [3]: 0.1 mg/dL
TOTAL PROTEIN [3]: 6 G/DL
URIC ACID [3]: 0.3 mg/dL
